Assays:
[1] = system: EBOV; experiment: microbe, parasite or virus in culture; type: cell-based, Ebola virus; conditions: Zaire ebolavirus
[2] = system: MARV; experiment: organism not typed; type: cell-based, Marburg virus
[3] = system: EBOV GP-pseudotyped vesicular stomatitis virus; experiment: microbe, parasite or virus in culture; type: cell-based, Ebola virus; conditions: Zaire ebolavirus
[4] = system: MARV GP-pseudotyped vesicular stomatitis virus; experiment: microbe, parasite or virus in culture; type: cell-based, Marburg virus; conditions: Vesicular stomatitis virus
[5] = system: EBOV virus-like particles; type: cell-based, Ebola virus
[6] = system: Francisella tularensis; type: cell-based; conditions: 50 µM
[7] = system: Bacillus anthracis; experiment: microbe, parasite or virus in culture; type: cell-based; conditions: J774.A1, 15 h, read-out: Bacillus anthracis ICR (% protection)
[8] = system: Coxiella burnetii; experiment: microbe, parasite or virus in culture; type: cell-based; conditions: Vero, 168 h, read-out: Coxiella burnetii ICR (% protection)
[9] = system: Bacillus anthracis; set-up: species or system Balb/c mice; conditions: in vivo
[10] = system: Bacillus anthracis; type: cell-based; conditions: 50 µM
[11] = system: Francisella tularensis; experiment: microbe, parasite or virus in culture; type: cell-based; conditions: J774.A1, 15 h, read-out: Fransciella tularensis ICR (% protection)
[12] = cited from earlier work
[13] = system: LASV GP-pseudotyped vesicular stomatitis virus; experiment: microbe, parasite or virus in culture; type: cell-based, Lassa virus; conditions: Vesicular stomatitis virus, HEK-293T, read-out: LASV VPEN (% activity)
[14] = system: EBOV; type: cell-based, Ebola virus
[15] = system: LASV; type: cell-based, Lassa virus

Structure (SMILES)	Fransciella tularensis Broth (% protection) [6]	inhibition at 50 µM [7]	inhibition of growth at 50 µM [8]	Bacillus anthracis Broth (% protection) [10]	inhibition at 50 µM [11]	also measured
CCN(CCO)CCCC(C)Nc1ccnc2cc(Cl)ccc12 (stereo not shown) [HCQ, Hydroxychloroquine]						EC50 ([1]; read-out: EC50, EBOV Replication): 22 µM; EC90 ([1]; read-out: EC90, EBOV Replication): 32 µM; EC50 ([2]; read-out: EC50, MARV Replication): 18 µM; EC90 ([2]; read-out: EC90, MARV Replication): 19 µM; EC50 ([3]; read-out: EC50, EBOV Entry): 9.5 µM; EC90 ([3]; read-out: EC90, EBOV Entry): 85 µM; EC50 ([4]; read-out: EC50, MARV Entry): 9.8 µM; EC90 ([4]; read-out: EC90, MARV Entry): 52 µM; effect on number of VLPs bound per cell [5]: no significant difference in binding
CCn1cc(C(=O)O)c(=O)c2cc(F)c(N3CCNC(C)C3)c(F)c21 (stereo not shown) [Lomefloxacin]	+	95%	100%	+	98%	efficacy in preventing mouse death following BA infection (rank) [9]: most efficacious drug; maximum concentration (Cmax) ([12]; following a 400 mg dose in humans): 2000 to 4000 ng/mL; bioavailability ([12]; humans): 95–98%
CN(C)c1ccc(O)c2c1C[C@H]1C[C@H]3[C@H](N(C)C)C(O)=C(C(N)=O)C(=O)[C@@]3(O)C(O)=C1C2=O [Minocycline]	−	95%	0%	−	92%	
CCN[C@@H]1C[C@H](N)[C@@H](O[C@H]2OC(CN)=CC[C@H]2N)[C@H](O)[C@H]1O[C@H]1OC[C@](C)(O)[C@H](NC)[C@H]1O [Netilmicin]	+	98%	100%	+	-2%	
CCn1cc(C(=O)O)c(=O)c2cc(F)c(N3CCNCC3)cc21 [Norfloxacin]	+	105%	0%	+	83%	Cmax ([12]; humans, dose not given): 2000 ng/mL
CN(C)[C@@H]1C(O)=C(C(N)=O)C(=O)[C@@]2(O)C(O)=C3C(=O)c4c(O)cccc4[C@@](C)(O)[C@H]3[C@H](O)[C@@H]12 [Oxytetracycline]	+	94%	0%	+	92%	
CN(C)[C@@H]1C(O)=C(C(N)=O)C(=O)[C@@]2(O)C(O)=C3C(=O)c4c(O)cccc4[C@@](C)(O)[C@H]3C[C@@H]12 [Tetracycline]		105%	0%		103%	
OC(CCN1CCCCC1)(c1ccccc1)C1CCCCC1 (stereo not shown) [Trihexyphenidyl]						inhibition at 10 µM [13]: 52%; inhibition at 10 µM ([3]; HEK-293T, read-out: EBOV VPEN (% activity)): 97%; inhibition at 10 µM ([4]; HEK-293T, read-out: MASV VPEN (% activity)): 91%; EBOV VR [14]: −; LASV VR [15]: −

Reference: paper PMC3618516, “A Systematic Screen of FDA-Approved Drugs for Inhibitors of Biological Threat Agents” (PLoS ONE, 2013)
